# Data: patent US9938281B2 (Merck Sharp & Dohme Corp., priority 2012, dated 2018)
# Key:
# PI3K-alpha = target: T1, PI3K-alpha (Homo sapiens, UniProt P42336); experiment: HTRF PI3K biochemical assay, alpha isoform; details: ratio PI3K-alpha IC50 value / PI3K-delta IC50 value
# T1 construct: purchased Upstate; Millipore 14-602
# PI3K-delta = target: T2, PI3K-delta (Homo sapiens, UniProt O00329); experiment: HTRF PI3K biochemical assay, delta isoform; details: form screened (neutral or TFA salt) given, read-out: PI3Kdelta IC50
# T2 construct: purchased Upstate; Millipore 14-604
# T2 sequence (O00329 whole entry, canonical isoform): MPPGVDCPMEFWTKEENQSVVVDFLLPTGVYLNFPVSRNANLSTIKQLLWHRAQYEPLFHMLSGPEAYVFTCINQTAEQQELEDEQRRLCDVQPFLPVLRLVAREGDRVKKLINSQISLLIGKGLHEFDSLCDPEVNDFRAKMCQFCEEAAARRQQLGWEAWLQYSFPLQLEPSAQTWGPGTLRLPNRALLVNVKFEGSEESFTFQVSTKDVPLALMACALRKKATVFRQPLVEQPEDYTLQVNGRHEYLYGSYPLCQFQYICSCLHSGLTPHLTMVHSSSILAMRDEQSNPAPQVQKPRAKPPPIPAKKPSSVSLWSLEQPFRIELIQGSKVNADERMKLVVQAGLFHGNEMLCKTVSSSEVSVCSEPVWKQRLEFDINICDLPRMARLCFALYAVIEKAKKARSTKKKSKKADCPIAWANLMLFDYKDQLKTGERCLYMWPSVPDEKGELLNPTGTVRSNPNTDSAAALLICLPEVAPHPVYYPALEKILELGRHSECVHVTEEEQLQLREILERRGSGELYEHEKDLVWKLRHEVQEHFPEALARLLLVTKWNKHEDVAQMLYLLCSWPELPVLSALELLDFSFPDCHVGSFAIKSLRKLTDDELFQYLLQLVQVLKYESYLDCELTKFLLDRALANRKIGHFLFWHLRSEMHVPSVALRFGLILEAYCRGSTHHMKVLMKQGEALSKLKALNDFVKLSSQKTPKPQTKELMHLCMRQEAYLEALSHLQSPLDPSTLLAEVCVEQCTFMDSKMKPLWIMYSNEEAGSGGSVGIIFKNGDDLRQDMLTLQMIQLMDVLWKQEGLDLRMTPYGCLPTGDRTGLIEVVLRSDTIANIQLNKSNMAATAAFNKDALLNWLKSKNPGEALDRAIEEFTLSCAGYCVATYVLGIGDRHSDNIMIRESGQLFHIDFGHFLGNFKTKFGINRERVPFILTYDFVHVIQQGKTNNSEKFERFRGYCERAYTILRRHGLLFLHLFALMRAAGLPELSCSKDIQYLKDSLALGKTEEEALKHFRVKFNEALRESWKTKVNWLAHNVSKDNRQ
# T2 sequence (P27986 whole entry partner, canonical isoform): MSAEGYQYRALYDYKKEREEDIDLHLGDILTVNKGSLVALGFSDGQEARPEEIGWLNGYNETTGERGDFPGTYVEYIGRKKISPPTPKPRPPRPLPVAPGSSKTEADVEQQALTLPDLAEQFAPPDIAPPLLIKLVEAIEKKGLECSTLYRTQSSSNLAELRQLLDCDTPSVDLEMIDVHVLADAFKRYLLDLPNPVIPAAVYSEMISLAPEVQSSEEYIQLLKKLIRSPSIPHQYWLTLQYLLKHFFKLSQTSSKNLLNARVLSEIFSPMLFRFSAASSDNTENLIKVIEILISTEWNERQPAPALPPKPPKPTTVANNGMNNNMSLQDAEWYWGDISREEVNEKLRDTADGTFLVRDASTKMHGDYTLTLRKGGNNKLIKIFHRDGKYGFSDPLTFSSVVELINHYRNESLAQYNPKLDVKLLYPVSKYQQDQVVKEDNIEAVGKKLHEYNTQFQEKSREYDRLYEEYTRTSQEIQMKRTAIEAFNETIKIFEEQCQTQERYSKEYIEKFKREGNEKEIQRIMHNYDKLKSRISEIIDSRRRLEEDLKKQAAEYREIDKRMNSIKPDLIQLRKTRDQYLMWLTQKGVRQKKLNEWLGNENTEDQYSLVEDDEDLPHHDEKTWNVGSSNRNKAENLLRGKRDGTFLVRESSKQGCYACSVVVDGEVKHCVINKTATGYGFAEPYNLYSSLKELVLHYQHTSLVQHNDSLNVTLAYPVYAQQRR
# T1 sequence (P42336 whole entry, canonical isoform): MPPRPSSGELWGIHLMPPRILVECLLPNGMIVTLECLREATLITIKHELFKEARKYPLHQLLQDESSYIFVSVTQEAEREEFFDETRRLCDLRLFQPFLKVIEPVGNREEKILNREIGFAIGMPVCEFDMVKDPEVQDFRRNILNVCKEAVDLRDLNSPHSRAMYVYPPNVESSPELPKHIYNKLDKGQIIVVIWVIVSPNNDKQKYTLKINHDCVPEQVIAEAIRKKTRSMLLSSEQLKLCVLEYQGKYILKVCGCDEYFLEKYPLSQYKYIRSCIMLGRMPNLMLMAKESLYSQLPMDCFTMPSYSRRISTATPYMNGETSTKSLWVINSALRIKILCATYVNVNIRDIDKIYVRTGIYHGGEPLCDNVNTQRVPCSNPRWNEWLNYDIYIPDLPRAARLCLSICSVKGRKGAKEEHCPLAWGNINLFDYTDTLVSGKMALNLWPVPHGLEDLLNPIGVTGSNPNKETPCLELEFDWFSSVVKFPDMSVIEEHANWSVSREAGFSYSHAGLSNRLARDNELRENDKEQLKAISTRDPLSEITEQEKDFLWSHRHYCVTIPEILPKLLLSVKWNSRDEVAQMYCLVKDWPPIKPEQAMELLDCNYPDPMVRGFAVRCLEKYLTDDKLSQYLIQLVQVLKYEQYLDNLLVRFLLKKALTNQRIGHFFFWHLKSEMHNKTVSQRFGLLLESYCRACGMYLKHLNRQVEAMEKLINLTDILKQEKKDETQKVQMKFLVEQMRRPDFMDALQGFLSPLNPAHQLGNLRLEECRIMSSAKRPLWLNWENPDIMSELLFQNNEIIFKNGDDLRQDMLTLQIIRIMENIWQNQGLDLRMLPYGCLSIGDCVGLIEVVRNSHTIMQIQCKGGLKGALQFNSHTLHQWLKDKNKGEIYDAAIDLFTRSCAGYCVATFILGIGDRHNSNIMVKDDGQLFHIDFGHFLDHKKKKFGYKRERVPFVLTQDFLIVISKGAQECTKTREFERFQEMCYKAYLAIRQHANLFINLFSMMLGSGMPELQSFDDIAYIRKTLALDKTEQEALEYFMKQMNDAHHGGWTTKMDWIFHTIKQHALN
# T1 sequence (P27986 whole entry partner, canonical isoform): as the sequence (P27986 whole entry partner, canonical isoform) above
Selectivity versus PI3Kalpha (PI3K-alpha),IC50 (PI3K-delta) [nM],SMILES
>10,7.4,"CCn1c(-c2cnc(C)nc2)nc2c(N[C@H]3CCN(C(=O)c4cc(C)on4)C3)ncnc21 [Compound 2-70, 9-ethyl-N-{(3S)-1-[(5-methylisoxazol-3-yl)carbonyl]pyrrolidin-3-yl}-8-(2-methylpyrimidin-5-yl)-9H-purin-6-amine]"
>10,4.2,"CCn1c(-c2cnc(C)nc2)nc2c(N[C@H]3CCN(C(=O)c4nnsc4C)C3)ncnc21 [Compound 2-71, 9-ethyl-8-(2-methylpyrimidin-5-yl)-N-{(3S)-1-[(5-methyl-1,2,3-thiadiazol-4-yl)carbonyl]pyrrolidin-3-yl}-9H-purin-6-amine]"
>10,2.8,"CCn1c(-c2cnc(C)nc2)nc2c(N[C@H]3CCN(C(=O)c4cocn4)C3)ncnc21 [Compound 2-72, 9-ethyl-8-(2-methylpyrimidin-5-yl)-N-[(3S)-1-(1,3-oxazol-4-ylcarbonyl)pyrrolidin-3-yl]-9H-purin-6-amine]"
>10,4.2,"CCn1c(-c2cnc(C)nc2)nc2c(N[C@H]3CCN(C(=O)c4cnn(C)c4)C3)ncnc21 [Compound 2-73, 9-ethyl-N-{(3S)-1-[(1-methyl-1H-pyrazol-4-yl)carbonyl]pyrrolidin-3-yl}-8-(2-methylpyrimidin-5-yl)-9H-purin-6-amine]"
>10,3.1,"CCn1c(-c2cnc(C)nc2)nc2c(N[C@H]3CCN(C(=O)c4ocnc4C)C3)ncnc21 [Compound 2-74, 9-ethyl-N-{(3S)-1-[(4-methyl-1,3-oxazol-5-yl)carbonyl]pyrrolidin-3-yl}-8-(2-methylpyrimidin-5-yl)-9H-purin-6-amine]"
>10,4.7,"CCn1c(-c2cnc(C)nc2)nc2c(N[C@H]3CCN(C(=O)c4cn(C)nn4)C3)ncnc21 [Compound 2-75, 9-ethyl-8-(2-methylpyrimidin-5-yl)-N-{(3S)-1-[(1-methyl-1H-1,2,3-triazol-4-yl)carbonyl]pyrrolidin-3-yl}-9H-purin-6-amine]"
>10,2.1,"CCn1c(-c2cnc(C)nc2)nc2c(N[C@H]3CCN(C(=O)C45CC(C4)C5)C3)ncnc21 [Compound 2-77, N-[(3S)-1-(bicyclo[1.1.1]pent-1-ylcarbonyl)pyrrolidin-3-yl]-9-ethyl-8-(2-methylpyrimidin-5-yl)-9H-purin-6-amine]"
>10,4.6,"CCn1c(-c2cnc(C)nc2)nc2c(N[C@H]3CCN(C(=O)C4CCNCC4)C3)ncnc21 [Compound 2-78, 9-ethyl-8-(2-methylpyrimidin-5-yl)-N-[(3S)-1-(piperidin-4-ylcarbonyl)pyrrolidin-3-yl]-9H-purin-6-amine]"
>10,17,"CCn1c(-c2cnc(C)nc2)nc2c(N[C@H]3CCN(C(=O)C4CN(C(C)C)C4)C3)ncnc21 [Compound 2-79, 9-ethyl-N-[(3S)-1-{[1-(1-methylethyl)azetidin-3-yl]carbonyl}pyrrolidin-3-yl]-8-(2-methylpyrimidin-5-yl)-9H-purin-6-amine]"
>10,61,"CCn1c(-c2cnc(C)nc2)nc2c(N[C@H]3CCN(C(=O)C(C)(C)N)C3)ncnc21 [Compound 2-80, N-[(3S)-1-(2-amino-2-methylpropanoyl)pyrrolidin-3-yl]-9-ethyl-8-(2-methylpyrimidin-5-yl)-9H-purin-6-amine]"
>10,21,"CCn1c(-c2cnc(C)nc2)nc2c(N[C@H]3CCN(C(=O)C4(NC)CC4)C3)ncnc21 [Compound 2-82, 9-ethyl-N-[(3S)-1-{[1-(methylamino)cyclopropyl]car-bonyl}pyrrolidin-3-yl]-8-(2-methylpyrimidin-5-yl)-9H-purin-6-amine]"
>10,20,"CCn1c(-c2cnc(C)nc2)nc2c(N[C@H]3CCN(C(=O)C4(N)CC4)C3)ncnc21 [Compound 2-84, N-{(3S)-1-[(1-aminocyclopropyl)carbonyl]pyrrolidin-3-yl}-9-ethyl-8-(2-methylpyrimidin-5-yl)-9H-purin-6-amine]"
>10,46,"CCn1c(-c2cnc(C)nc2)nc2c(N[C@H]3CCN(C(=O)CCNC)C3)ncnc21 [Compound 2-86, 9-ethyl-N-{(3S)-1-[3-(methylamino)propanoyl]pyrroli-din-3-yl}-8-(2-methylpyrimidin-5-yl)-9H-purin-6-amine]"
>10,1.3,"CCn1c(-c2cnc(C)nc2)nc2c(N[C@H]3CCN(C(=O)[C@@H]4C[C@@H]4C)C3)ncnc21 [Compound 2-90, 9-ethyl-N-[(3S)-1-{[(1R,2S)-2-methylcyclopropyl]carbonyl}pyrrolidin-3-yl]-8(2-methylpyrimidin-5-yl)-9H-purin-6-amine]"
>10,12,"CCn1c(-c2cnc(C)nc2)nc2c(N[C@H]3CCN(C(=O)[C@H]4C[C@H]4C)C3)ncnc21 [Compound 2-91, 9-ethyl-N-[(3S)-1-{[(1S,2R)-2-methylcyclopropyl]carbonyl}pyrrolidin-3-yl]-8-(2-methylpyrimidin-5-yl)-9H-purin-6-amine]"
>10,< 1,"CCn1c(-c2cnc(C)nc2)nc2c(N[C@H]3CCN(C(=O)[C@@H]4C[C@H]4C)C3)ncnc21 [Compound 2-92, 9-ethyl-N-[(3S)-1-{[(1R,2R)-2-methylcyclopropyl]carbonyl}pyrrolidin-3-yl]-8-(2-methylpyrimidin-5-yl)-9H-purin-6-amine]"
>10,11.2,"CCn1c(-c2cnc(C)nc2)nc2c(N[C@H]3CCN(C(=O)[C@H]4C[C@@H]4C)C3)ncnc21 [Compound 2-93, 9-ethyl-N-[(3S)-1-{[(1S,2S)-2-methylcyclopropyl]carbonyl}pyrrolidin-3-yl]-8-(2-methylpyrimidin-5-yl)-9H-purin-6-amine]"
>10,< 1,"CCn1c(-c2cnc(C)nc2)nc2c(N[C@H]3CCN(C(=O)C4CC4)[C@@H]3C)ncnc21 [Compound 2-94, N-[(2R,3S)-1-(cyclopropylcarbonyl)-2-methylpyrrolidin-3-yl]-9-ethyl-8-(2-methylpyrimidin-5-yl)-9H-purin-6-amine]"
>10,2.8,"CCn1c(-c2cnc(C)nc2)nc2c(N[C@H]3CCN(C(=O)[C@H]4CC[C@@H](O)CC4)C3)ncnc21 [Compound 2-98, cis-4-{[(3S)-3-{[9-ethyl-8-(2-methylpyrimidin-5-yl)-9H-purin-6-yl]amino}pyrrolidin-1-yl]carbonyl}cyclohexanol]"
>10,2.8,"CCn1c(-c2cnc(C)nc2)nc2c(N[C@H]3CCN(C(=O)[C@H]4CC[C@H](O)CC4)C3)ncnc21 [Compound 2-99, trans-4-{[(3S)-3-{[9-ethyl-8-(2-methylpyrimidin-5-yl)-9H-purin-6-yl]amino}pyrrolidin-1-yl]carbonyl}cyclohexanol]"
>10,6.3,"CCn1c(-c2cnc(C)nc2)nc2c(N(C)[C@H]3CCN(C(=O)[C@H]4CC[C@@H](O)CC4)C3)ncnc21 [Compound 2-100, cis-4-{[(3S)-3-{[9-ethyl-8-(2-methylpyrimidin-5-yl)-9H-purin-6-yl](methyl)amino}pyrrolidin-1-yl]carbonyl}cyclohexanol]"
>10,< 1,"CCn1c(-c2ccc(C(F)(F)F)nc2)nc2c(N[C@H]3CCN(C(=O)[C@H]4C[C@@H](OC)C4)C3)ncnc21 [Compound 2-105, 9-ethyl-N-{(3S)-1-[(cis-3-methoxycyclobutyl)carbonyl]pyrrolidin-3-yl}-8-[6-(trifluoromethyl)pyridin-3-yl]-9H-purin-6-amine]"
>10,1.2,"CCn1c(-c2ccc(C(F)(F)F)nc2)nc2c(N[C@H]3CCN(C(=O)[C@H]4C[C@H](OC)C4)C3)ncnc21 [Compound 2-106, 9-ethyl-N-{(3S)-1-[(trans-3-methoxycyclobutyl)carbonyl]pyrrolidin-3-yl}-8-[6-(trifluoromethyl)pyridin-3-yl]-9H-purin-6-amine]"
>10,11,"CCC(=O)N1CC[C@H](Nc2ncnc3c2nc(-c2ccc(C(F)(F)F)nc2)n3C)C1 [Compound 3-1, (S)-1-(3-((9-methyl-8-(6-(trifluoromethyl)pyridin-3-yl)-9H-purin-6-yl)amino)pyrrolidin-1-yl)propan-1-one]"
>10,< 1,"CCC(=O)N1CC[C@H](Nc2ncnc3c2nc(-c2cnc4[nH]ccc4c2)n3C)C1 [Compound 3-2, (S)-1-(3-((9-methyl-8-(1H-pyrrolo[2,3-b]pyridin-5-yl)-9H-purin-6-yl)amino)pyrrolidin-1-yl)propan-1-one]"
>10,4.3,"CCC(=O)N1CC[C@H](Nc2ncnc3c2nc(-c2ccc4[nH]ncc4c2)n3C)C1 [Compound 3-3, (S)-1-(3-((8-(1H-indazol-5-yl)-9-methyl-9H-purin-6-yl)amino)pyrrolidin-1-yl)propan-1-one]"
>10,7.7,"CCC(=O)N1CC[C@H](Nc2ncnc3c2nc(-c2ccc4cc[nH]c4c2)n3C)C1 [Compound 3-4, (S)-1-(3-((8-(1H-indol-6-yl)-9-methyl-9H-purin-6-yl)amino)pyrrolidin-1-yl)propan-1-one]"
>10,4.5,"CCC(=O)N1CC[C@H](Nc2ncnc3c2nc(-c2ccc(C)nc2)n3C)C1 [Compound 3-5, (S)-1-(3-((9-methyl-8-(6-methylpyridin-3-yl)-9H-purin-6-yl)amino)pyrrolidin-1-yl)propan-1-one]"
>10,1.6,"CCC(=O)N1CC[C@H](Nc2ncnc3c2nc(-c2ccc4cn[nH]c4c2)n3C)C1 [Compound 3-6, (S)-1-(3-((8-(1H-indazol-6-yl)-9-methyl-9H-purin-6-yl)amino)pyrrolidin-1-yl)propan-1-one]"
